Assay results published in ChEMBL document CHEMBL4340507, “Identification of an indol-based multi-target kinase inhibitor through phenotype screening and target fishing using inverse virtual screening approach” (Eur J Med Chem, 2019).
pIC50: −log10 of the molar value. Active and inactive are the calls of the source. The rule behind the calls is not given here.

Assays:
HeLa [1] = experiment: Antiproliferative activity against human HeLa cells assessed as decrease in cell viability measured after 72 hrs by MTT assay; format: functional, cell-based
[2] = molecular target: Fibroblast growth factor receptor 3 (Homo sapiens, UniProt P22607); experiment: Inhibition of recombinant human wild-type N-terminal GST-His6-fused FGFR3 C-terminal domain (R397 to T806 residues) expressed in Sf9 insect cells using TRK-C derived peptide as substrate measured after 60 mins in presence of [gamma-33P]-ATP by scintillation counting method
Sequence of Fibroblast growth factor receptor 3 (P22607 whole entry, the tested form may be a part): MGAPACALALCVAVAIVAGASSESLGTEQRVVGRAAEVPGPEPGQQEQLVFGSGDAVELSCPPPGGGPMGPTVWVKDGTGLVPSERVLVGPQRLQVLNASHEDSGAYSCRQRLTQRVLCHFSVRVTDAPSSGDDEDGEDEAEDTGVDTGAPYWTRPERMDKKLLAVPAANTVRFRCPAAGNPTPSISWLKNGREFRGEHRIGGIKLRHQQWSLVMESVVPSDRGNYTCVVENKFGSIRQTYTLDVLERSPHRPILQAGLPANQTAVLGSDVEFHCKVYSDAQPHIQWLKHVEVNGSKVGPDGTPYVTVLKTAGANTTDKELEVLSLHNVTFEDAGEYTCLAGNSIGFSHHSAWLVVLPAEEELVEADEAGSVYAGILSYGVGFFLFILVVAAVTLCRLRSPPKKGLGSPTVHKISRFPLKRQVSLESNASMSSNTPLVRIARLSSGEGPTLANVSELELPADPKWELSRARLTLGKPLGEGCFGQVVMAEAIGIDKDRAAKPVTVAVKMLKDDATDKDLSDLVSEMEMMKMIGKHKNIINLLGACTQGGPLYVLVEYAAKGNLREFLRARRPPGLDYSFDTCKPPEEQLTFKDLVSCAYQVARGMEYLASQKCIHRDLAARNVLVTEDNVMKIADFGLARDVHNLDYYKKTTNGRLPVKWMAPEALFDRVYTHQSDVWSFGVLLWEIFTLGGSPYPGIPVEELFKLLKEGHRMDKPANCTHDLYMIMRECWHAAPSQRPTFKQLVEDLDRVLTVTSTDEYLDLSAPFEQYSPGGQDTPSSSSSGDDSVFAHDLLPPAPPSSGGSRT

[3] = molecular target: Epidermal growth factor receptor (Homo sapiens, UniProt P00533); experiment: Inhibition of recombinant human wild-type N-terminal GST-His6-fused EGFR C-terminal domain (H672 to A1210) expressed in Sf9 insect cells using Poly(Glu:Tyr)4:1 as substrate measured after 60 mins in presence of [gamma-33P]-ATP by scintillation counting method
[4] = molecular target: Fibroblast growth factor receptor 1 (Homo sapiens, UniProt P11362); experiment: Inhibition of recombinant human wild-type N-terminal GST-His6-fused FGFR1 C-terminal domain (G400 to R820 residues) expressed in Sf9 insect cells using Poly(Glu:Tyr)4:1 as substrate measured after 60 mins in presence of [gamma-33P]-ATP by scintillation counting method
[5] = molecular target: Dual specificity protein kinase CLK1 (Homo sapiens, UniProt P49759); experiment: Inhibition of recombinant human full-length N-terminal GST-His6-fused CLK1 (M1 to I484 residues) expressed in Sf9 cells using RS-peptide as substrate measured after 60 mins in presence of [gamma-33P]-ATP by scintillation counting method
[6] = molecular target: High affinity nerve growth factor receptor (Homo sapiens, UniProt P04629); experiment: Inhibition of recombinant human wild-type N-terminal GST-His6-fused TRKA C-terminal domain (G443 to G796 residues) expressed in Sf9 insect cells using TRK-C derived peptide as substrate measured after 60 mins in presence of [gamma-33P]-ATP by scintillation counting method
[7] = molecular target: Vascular endothelial growth factor receptor 2 (Homo sapiens, UniProt P35968); experiment: Inhibition of recombinant human N-terminal GST-fused VEGFR2 C-terminal domain (D807 to V1356 residues) expressed in Sf9 insect cells using Poly(Glu:Tyr)4:1 as substrate measured after 60 mins in presence of [gamma-33P]-ATP by scintillation counting method
Sequence of Vascular endothelial growth factor receptor 2 (P35968 whole entry, the tested form may be a part): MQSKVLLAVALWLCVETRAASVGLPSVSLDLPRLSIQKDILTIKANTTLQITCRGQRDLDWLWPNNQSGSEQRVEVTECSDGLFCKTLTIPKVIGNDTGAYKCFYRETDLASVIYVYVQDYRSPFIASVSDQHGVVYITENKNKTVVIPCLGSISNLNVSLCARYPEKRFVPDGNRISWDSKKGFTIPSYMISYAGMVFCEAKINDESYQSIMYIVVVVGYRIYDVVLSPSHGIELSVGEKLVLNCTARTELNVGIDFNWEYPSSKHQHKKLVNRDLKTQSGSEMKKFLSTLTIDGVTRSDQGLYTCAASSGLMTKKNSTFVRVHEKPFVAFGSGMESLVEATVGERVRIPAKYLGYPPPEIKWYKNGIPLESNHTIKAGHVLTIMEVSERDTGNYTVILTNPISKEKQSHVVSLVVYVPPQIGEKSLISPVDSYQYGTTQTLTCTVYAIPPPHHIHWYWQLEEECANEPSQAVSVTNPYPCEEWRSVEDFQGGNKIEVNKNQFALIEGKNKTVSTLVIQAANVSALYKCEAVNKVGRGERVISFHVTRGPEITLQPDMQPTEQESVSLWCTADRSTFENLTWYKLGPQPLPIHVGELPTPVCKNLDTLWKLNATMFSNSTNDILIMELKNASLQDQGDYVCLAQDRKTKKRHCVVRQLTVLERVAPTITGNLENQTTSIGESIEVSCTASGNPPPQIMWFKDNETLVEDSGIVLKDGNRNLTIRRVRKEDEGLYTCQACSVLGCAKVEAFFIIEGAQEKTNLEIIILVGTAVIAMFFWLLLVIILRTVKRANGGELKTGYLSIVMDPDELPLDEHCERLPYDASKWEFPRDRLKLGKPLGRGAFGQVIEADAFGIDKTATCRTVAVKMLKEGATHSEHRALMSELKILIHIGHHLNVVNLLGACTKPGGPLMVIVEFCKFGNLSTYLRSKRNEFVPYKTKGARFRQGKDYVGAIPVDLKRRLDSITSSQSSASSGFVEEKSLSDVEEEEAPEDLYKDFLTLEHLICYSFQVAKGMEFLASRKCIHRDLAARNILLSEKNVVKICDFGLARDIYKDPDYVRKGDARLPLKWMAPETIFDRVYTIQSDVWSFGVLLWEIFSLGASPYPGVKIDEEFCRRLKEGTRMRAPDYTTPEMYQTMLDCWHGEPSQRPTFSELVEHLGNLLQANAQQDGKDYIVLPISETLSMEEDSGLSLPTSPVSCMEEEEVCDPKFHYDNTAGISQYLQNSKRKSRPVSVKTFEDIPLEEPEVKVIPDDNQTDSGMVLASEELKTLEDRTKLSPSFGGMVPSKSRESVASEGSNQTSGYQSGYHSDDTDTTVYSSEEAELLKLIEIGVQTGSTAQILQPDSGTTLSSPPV

[8] = molecular target: Platelet-derived growth factor receptor alpha (Homo sapiens, UniProt P16234); experiment: Inhibition of recombinant human wild-type N-terminal GST-His6-fused PDGFR-alpha C-terminal domain (Q551 to L1089 residues) expressed in Sf9 insect cells using TRK-C derived peptide as substrate measured after 60 mins in presence of [gamma-33P]-ATP by scintillation counting method
[9] = molecular target: Mitogen-activated protein kinase 15 (Homo sapiens, UniProt Q8TD08); experiment: Inhibition of recombinant human N-terminal 4xFLAG-tagged/C-terminal His8-fused ERK7 N-terminal domain (M1 to R354 residues) expressed in Sf9 insect cells using RBER-CHKtide as substrate measured after 60 mins in presence of [gamma-33P]-ATP by scintillation counting method
[10] = molecular target: Mitogen-activated protein kinase 3 (Homo sapiens, UniProt P27361); experiment: Inhibition of recombinant human full-length N-terminal GST-His6 fused ERK1 (M1 to P379 residues) expressed in Escherichia coli using RBER-CHKtide as substrate measured after 60 mins in presence of [gamma-33P]-ATP by scintillation counting method
[11] = molecular target: Mitogen-activated protein kinase 1 (Homo sapiens, UniProt P28482); experiment: Inhibition of recombinant human full-length untagged ERK2 (M1 to S360 residues) expressed in Escherichia coli using recombinant ELK1 as substrate measured after 60 mins in presence of [gamma-33P]-ATP by scintillation counting method
Wee1-like protein kinase = Wee1-like protein kinase (Homo sapiens, UniProt P30291); experiment: Inhibition of recombinant human N-terminal GST-His6-fused WEE1 C-terminal domain (Q36 to Y432 residues) expressed in Sf9 cells using Poly(Ala,Glu,Lys,Tyr)6:2:5:1 as substrate measured after 60 mins in presence of [gamma-33P]-ATP by scintillation counting method
Sequence of Wee1-like protein kinase (P30291 whole entry, the tested form may be a part): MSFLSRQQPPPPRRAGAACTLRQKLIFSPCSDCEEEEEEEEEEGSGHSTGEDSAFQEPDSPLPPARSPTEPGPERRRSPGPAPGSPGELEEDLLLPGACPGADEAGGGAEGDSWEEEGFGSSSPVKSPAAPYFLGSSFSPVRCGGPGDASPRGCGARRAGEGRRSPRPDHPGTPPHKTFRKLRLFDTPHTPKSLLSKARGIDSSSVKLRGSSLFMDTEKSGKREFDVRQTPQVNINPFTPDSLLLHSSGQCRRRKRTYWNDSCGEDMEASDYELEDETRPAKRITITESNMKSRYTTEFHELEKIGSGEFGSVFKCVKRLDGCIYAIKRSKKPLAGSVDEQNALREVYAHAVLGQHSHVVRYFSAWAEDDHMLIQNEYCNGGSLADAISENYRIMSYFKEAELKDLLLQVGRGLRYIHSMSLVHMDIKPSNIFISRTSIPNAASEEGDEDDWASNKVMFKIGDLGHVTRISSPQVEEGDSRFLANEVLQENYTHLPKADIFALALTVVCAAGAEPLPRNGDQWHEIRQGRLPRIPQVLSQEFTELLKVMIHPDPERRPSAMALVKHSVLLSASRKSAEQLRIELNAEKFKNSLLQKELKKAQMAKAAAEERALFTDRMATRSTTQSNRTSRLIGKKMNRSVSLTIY

[12] = molecular target: Platelet-derived growth factor receptor beta (Homo sapiens, UniProt P09619); experiment: Inhibition of recombinant human N-terminal GST-His6-fused PDGFR-beta C-terminal domain (R561 to L1106 residues) expressed in Sf9 insect cells using Poly(Ala,Glu,Lys,Tyr)6:2:5:1 as substrate measured after 60 mins in presence of [gamma-33P]-ATP by scintillation counting method
Sequence of Platelet-derived growth factor receptor beta (P09619 whole entry, the tested form may be a part): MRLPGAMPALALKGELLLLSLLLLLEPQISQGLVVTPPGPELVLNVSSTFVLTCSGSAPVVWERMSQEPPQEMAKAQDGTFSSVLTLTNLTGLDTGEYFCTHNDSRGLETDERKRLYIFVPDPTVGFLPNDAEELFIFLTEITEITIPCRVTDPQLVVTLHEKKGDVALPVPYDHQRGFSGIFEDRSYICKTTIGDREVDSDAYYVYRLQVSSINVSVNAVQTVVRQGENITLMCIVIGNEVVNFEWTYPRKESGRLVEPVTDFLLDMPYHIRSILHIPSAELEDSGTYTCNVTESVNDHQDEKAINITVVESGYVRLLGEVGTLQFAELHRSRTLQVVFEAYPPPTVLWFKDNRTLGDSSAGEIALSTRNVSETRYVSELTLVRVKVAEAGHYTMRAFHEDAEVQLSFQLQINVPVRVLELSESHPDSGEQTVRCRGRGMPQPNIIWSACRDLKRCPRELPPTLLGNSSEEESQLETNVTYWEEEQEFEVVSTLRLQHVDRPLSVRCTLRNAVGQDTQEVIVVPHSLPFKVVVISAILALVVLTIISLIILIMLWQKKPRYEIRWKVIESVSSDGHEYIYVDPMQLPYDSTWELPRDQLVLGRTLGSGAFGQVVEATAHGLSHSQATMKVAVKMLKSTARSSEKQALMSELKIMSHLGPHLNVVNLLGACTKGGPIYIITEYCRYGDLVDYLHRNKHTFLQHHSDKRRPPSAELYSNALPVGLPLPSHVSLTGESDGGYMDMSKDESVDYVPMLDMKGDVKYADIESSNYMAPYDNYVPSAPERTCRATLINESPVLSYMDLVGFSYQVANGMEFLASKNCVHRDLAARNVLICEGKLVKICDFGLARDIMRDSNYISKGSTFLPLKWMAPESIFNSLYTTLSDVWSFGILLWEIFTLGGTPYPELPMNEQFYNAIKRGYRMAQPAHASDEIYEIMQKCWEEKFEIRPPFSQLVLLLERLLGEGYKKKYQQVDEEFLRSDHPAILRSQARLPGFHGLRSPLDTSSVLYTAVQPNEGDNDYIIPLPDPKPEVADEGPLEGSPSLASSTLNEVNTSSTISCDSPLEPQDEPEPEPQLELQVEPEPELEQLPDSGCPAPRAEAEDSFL

[13] = molecular target: Mitogen-activated protein kinase 14 (Homo sapiens, UniProt Q16539); experiment: Inhibition of recombinant human full-length untagged p38-alpha (M1 to S360 residues) expressed in Escherichia coli cells using recombinant ATF2 as substrate measured after 60 mins in presence of [gamma-33P]-ATP by scintillation counting method
[14] = molecular target: Mitogen-activated protein kinase kinase kinase 9 (Homo sapiens, UniProt P80192); experiment: Inhibition of recombinant human MAP3K9 measured after 60 mins in presence of [gamma-33P]-ATP by scintillation counting method
Sequence of Mitogen-activated protein kinase kinase kinase 9 (P80192 whole entry, the tested form may be a part): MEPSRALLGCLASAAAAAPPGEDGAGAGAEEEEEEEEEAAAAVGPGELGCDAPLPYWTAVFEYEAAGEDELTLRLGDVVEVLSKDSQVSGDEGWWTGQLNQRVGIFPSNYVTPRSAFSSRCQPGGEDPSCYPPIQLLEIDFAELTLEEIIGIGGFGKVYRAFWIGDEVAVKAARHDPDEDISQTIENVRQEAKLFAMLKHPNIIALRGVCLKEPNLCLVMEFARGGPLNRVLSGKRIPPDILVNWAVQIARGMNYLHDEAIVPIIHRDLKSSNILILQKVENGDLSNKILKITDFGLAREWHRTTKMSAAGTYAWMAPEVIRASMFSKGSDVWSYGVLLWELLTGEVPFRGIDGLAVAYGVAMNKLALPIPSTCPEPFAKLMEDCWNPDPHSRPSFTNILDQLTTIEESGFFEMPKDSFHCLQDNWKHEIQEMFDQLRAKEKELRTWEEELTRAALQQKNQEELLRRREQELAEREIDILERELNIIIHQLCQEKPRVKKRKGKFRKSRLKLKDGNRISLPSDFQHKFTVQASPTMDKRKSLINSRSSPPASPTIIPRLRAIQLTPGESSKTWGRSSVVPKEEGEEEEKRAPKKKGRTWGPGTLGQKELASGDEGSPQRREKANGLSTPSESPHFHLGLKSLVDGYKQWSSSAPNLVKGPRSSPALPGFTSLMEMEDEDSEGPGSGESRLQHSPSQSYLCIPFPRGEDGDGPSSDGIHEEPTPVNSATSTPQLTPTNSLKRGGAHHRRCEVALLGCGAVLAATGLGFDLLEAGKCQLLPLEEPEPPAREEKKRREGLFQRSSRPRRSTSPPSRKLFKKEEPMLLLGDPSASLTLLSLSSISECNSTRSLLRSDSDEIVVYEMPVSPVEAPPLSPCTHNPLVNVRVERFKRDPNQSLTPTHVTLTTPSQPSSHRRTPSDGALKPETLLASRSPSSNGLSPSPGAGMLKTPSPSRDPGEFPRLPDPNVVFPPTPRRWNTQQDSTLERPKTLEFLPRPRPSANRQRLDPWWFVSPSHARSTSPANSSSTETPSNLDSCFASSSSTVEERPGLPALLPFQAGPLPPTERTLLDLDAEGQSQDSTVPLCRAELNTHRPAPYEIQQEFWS

[15] = molecular target: Dual specificity mitogen-activated protein kinase kinase 1 (Homo sapiens, UniProt Q02750); experiment: Inhibition of recombinant human wild-type full-length MEK1 (M1 to V393 residues) expressed in Sf9 insect cells using ERK2-K54R as substrate measured after 60 mins in presence of [gamma-33P]-ATP by scintillation counting method
HeLa [16] = experiment: Induction of apoptosis in human HeLa cells assessed as increase in hypodiploid nuclei at 0.3 to 0.6 uM measured after 24 hrs by propidium iodide staining-based FACS analysis; format: functional, cell-based
IEC-6 [17] = experiment: Induction of apoptosis in rat IEC-6 cells assessed as increase in hypodiploid nuclei at 0.1 to 0.6 uM measured after 24 hrs by propidium iodide staining-based FACS analysis; format: cell-based; details: iec-6, 24 h
IEC-6 [18] = experiment: Cell cycle arrest in rat IEC-6 cells assessed as increase in accumulation at S phase at 0.1 to 0.6 uM after 24 hrs by propidium iodide staining based FACS analysis; format: ADME; details: iec-6, 24 h
IEC-6 [19] = experiment: Induction of ROS generation in rat IEC-6 cells at 0.1 to 0.6 uM measured after 24 hrs by H2DCF-DA staining-based FACS analysis; format: cell-based; details: iec-6, 24 h
HeLa [20] = experiment: Induction of apoptosis in human HeLa cells assessed as increase in caspase 3 level at 0.1 to 0.6 uM after 24 hrs by FACS analysis; format: functional, cell-based
HeLa [21] = experiment: Down regulation of ERK expression in human HeLa cells at 0.1 to 0.6 uM after 24 hrs by FACS analysis; format: functional, cell-based
IEC-6 [22] = experiment: Down regulation of ERK expression in rat IEC-6 cells at 0.1 to 0.6 uM after 24 hrs by FACS analysis; format: ADME, cell-based; details: iec-6, 24 h
[23] = Inhibition of ERK phosphorylation in rat IEC-6 cells at 0.1 to 0.6 uM after 24 hrs by FACS analysis; format: cell-based; details: iec-6, 24 h

CN(CCc1ccc(-c2ccccc2)cc1)Cc1cn(C)c2ccc(C(=O)Nc3ccc(F)cc3)cc12
pIC50 (HeLa [1]): 6.48
pIC50 [2]: 5.20
pIC50 [3]: 5.00
pIC50 [4]: 4.89
pIC50 [5]: 4.89
pIC50 [6]: 4.80
pIC50 [7]: 4.51
pIC50 [8]: 4.32
pIC50 [9]: 4.21
pIC50 [10]: 4.19
pIC50 [11]: 4.18
pIC50 (Wee1-like protein kinase): 4.10
pIC50 [12]: 4.09
pIC50 [13]: 4.06
pIC50 [14]: 4.00
pIC50 [15]: < 4.00
Activity (HeLa [16]): Active
Activity (IEC-6 [17]): Toxic
Activity (IEC-6 [18]): Toxic
Activity (IEC-6 [19]): Toxic
Activity (HeLa [20]): Active
Activity (HeLa [21]): Active
Activity (IEC-6 [22]): Non-Toxic
inhibition (INH) [23]: Not Active
